Earlier results, collected in US7491730B2, “Compositions useful as inhibitors of GSK-3” (Vertex Pharmaceuticals Incorporated, priority 2002, dated 2009).

Target: gamma secretase
Settings: vendor value, Calbiochem catalog #565771; read-out: reported IC50

In the case of `CC(C)C[C@H](NC(=O)[C@H](Cc1ccccc1)C[C@@H](O)[C@H](Cc1ccccc1)NC(=O)OC(C)(C)C)C(=O)N[C@@H](Cc1ccccc1)C(N)=O` [Inhibitor X], the IC50 is listed as 50 nM.
